Measurements taken from patent US7754678B2, “Membrane penetrating peptides and uses thereof” (Aventis Pharmaceuticals Inc., priority 2000, dated 2010).

Tests used:
CHO cells [1] = assay: Membrane penetration (peptide internalization) assay of biotinylated synthetic peptides; assay type: cell-based, Chinese Hamster; conditions: for intracellular distribution / staining of internalized peptide: Streptavidin ALEXA or anti-Flag mAb staining; for cells penetrated by peptide: peptide 10 μM added to cells in culture
Method: FIG. 2. Membrane penetration assay in CHO cells. N-terminal biotinylated synthetic peptides hPER1-PTD, Flag-hPER1-PTD, Flag-TAT-PTD (positive control), and Flag-Flag (negative control) were assayed for their ability to penetrate cellular membranes in living CHO cells in culture. The subcellular localization of internalized peptides was determined using a two color staining method, either Streptavidin-Alexa 594 (red) or anti-flag mAb. The third column is an overlay. Confocal microscopy was employed to further confirm intracellular and intranuclear localization. Single section of confocal imaging is shown.
FIG. 3. Alanine scanning of hPER1-PDTs. Biotinylated hPER1-NPDs were synthesized with a single amino acid residue substitution at the indicated position with an alanine and assayed for membrane penetration in CHO cells. Cells were incubated for 10 minutes at 37 C. at a peptide concentration of 10 μM followed by washing, fixation, permeablization, and then detected with labeled Streptavidin Alexa-594 (red, 2 μg/ml) for 15 minutes at the RT. Control peptide was from hPER1 N-terminal amino acids residues 486-500.
Peptides are synthesized by a commercial vendor (Bio Synthesis). For peptides internalization, cells are plated into two-well Lab-Tek coverslips (Nunc Inc.) at a density of 2×10^5 cells/well and cultured overnight. The peptides are dissolved in DMSO diluted to indicated concentration with PBS. The cell monolayers were incubated with the appropriate peptide/PBS solution at 1 μM standard concentration for 10 min at room temperature (RT) unless otherwise specified. For experiments at 4° C., the protocol was the same except that all incubations were performed at 4° C. until the end of the fixation procedure.
The peptides are assayed for their ability to penetrate cellular membranes. Intracellular localization is assayed by direct staining with labeled Streptavidin ALEXA reagents or by indirect staining with anti-Flag mAb followed by the addition of labeled secondary antibodies.

5HT2A receptor = target: T1, 5HT2A receptor (Homo sapiens, UniProt P28223); assay: 5HT2A receptor activation, FLIPR calcium response; assay type: cell-based; conditions: 10 μM, 5HT2A receptor CHO stable cell line
T1 construct: expressed in transfected cells
T1 sequence (P28223 whole entry): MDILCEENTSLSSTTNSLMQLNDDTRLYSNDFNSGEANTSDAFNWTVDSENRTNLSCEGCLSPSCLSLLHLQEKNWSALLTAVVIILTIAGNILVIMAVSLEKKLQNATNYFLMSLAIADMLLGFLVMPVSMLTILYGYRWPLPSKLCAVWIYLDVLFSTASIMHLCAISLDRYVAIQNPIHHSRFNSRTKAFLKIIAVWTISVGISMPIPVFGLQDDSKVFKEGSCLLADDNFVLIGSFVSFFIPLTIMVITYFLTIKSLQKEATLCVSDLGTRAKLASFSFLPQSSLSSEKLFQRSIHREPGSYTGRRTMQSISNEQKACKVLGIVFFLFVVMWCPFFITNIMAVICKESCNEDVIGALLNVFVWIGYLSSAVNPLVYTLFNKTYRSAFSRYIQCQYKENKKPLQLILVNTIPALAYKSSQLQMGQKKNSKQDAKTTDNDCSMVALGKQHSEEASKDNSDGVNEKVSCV
Method: FIG. 4. Activation of serotonin 5HT2A receptor with hPER1-MPP fusion peptide. (A). hPER1-MPP and TAT-PTD peptides were synthesized alone or in fusion with either the first intracellular loop I1 ([…] (SEQ ID NO:10)), or the C-terminal Transmembrane 7 domain. TM7 ([…] (SEQ ID NO:11) derived from the 5HT2A receptor, genebank accession number, M86841). Receptor activities was assayed using standard FLIPR analysis and measuring endogenous and exogenous Ca^+2 levels. Peptide designations are as follows: T (TAT-PTD), P (hPER1-MPP), I1 (intracellular loop 1), T-I1 (TAT-PTD-I1), P-I1 (hPER1-MPP-I1), TM7 (C-terminal domain), TTM7 (TAT-PTD-TM7), PTM7 (hPER1-MPP-TM7), and S (Serotonin).
FIG. 4 (B). Dose response of PTM7 (closed circles) and TTM7 (closed diamonds) peptides. Serotonin (control, open triangle) was used at the maximum receptor stimulatory concentration of 10 μM.
One of the features of MPPs is their ability to cargo proteins and peptides into cells. We were successful in coupling hPER1-MPP to B-galactosidase and in delivering the fusion protein into cells in culture (data not shown), as has been described by Fawells et al., 1994 (Fawell, S., et al., Proc Natl Acad Sci USA. 91, 664-668 (1994)). However, to further extend the functional utility of MPPs, we tested hPER1-MPP in fusion with a physiologically relevant and biologically active peptide. […]

CHO cells [2] = assay: β-galactosidase cargo delivery into cells (X-gal staining); assay type: cell-based, Chinese Hamster; conditions: chemically linked conjugates
Source text: FIG. 6. hPER-PTD cargo's β-Galactosidase into cells: At least one feature of HIV TAT transducing peptide is its ability to cargo proteins into cells and tissues. We therefore sought to determine if hPER1 transducing peptide could cargo beta galactosidase into cells. To perform this experiment, we followed a protocol by Frankel et al. 1989 (19):7397-401, whereby, we chemically linked hPER1-PTD or hPER-PTD R7A to full length β-galactosidase and assayed for the ability of these conjugates and beta-galactosidase protein alone to transduce into CHO cells.
At least one feature of HIV TAT transducing peptide is its ability to cargo proteins into cells and tissues. We therefore sought to determine if hPER1 transducing peptide could cargo beta galactosidase into cells. To perform this experiment, we followed a protocol by Frankel et al. PNAS 1989 (19):7397-401, whereby, we chemically linked hPER1-PTD or hPER-PTD R7A (with Ala replacing Arg^7) to full length β-galactosidase and assayed for the ability of these conjugates and beta-galactosidase protein alone to transduce into CHO cells.

Molecule: GMDYKDDDDKGMDYKDDDDK [Flag, reference compound]
- intracellular distribution / staining of internalized peptide (CHO cells [1]): only barely discernible background staining

Molecule: KTYRSAFSRYIQYKENKKPLQLI [TM7, C-terminal Transmembrane 7 domain peptide of the 5HT2A receptor]
- 5HT2A receptor signaling, calcium response (5HT2A receptor): TM7 alone nor any of the other peptides were able to generate a calcium response

Molecule: S R R H H C A S K A K R S R H H (SRRHHCASKAKRSRHH) [R7A]
- membrane penetrating ability in words (relative to wild-type hPER1-MPP, TAT-PTD or negative control) (CHO cells [1]): reduced the detectable cytological signal to that observed for the negative control peptides

Molecule: GKKTGKNRKLKSKRVKPRD [hPER2]
- membrane penetrating ability in words (relative to wild-type hPER1-MPP, TAT-PTD or negative control) (CHO cells [1]): not all NLSs are PTDs

Molecule: GRRERNKMAAAKCRNRRR [C-FOS]
- membrane penetrating ability in words (relative to wild-type hPER1-MPP, TAT-PTD or negative control) (CHO cells [1]): not all NLSs are PTDs

Molecule: β-galactosidase protein: full length β-galactosidase alone
- delivery of β-galactosidase into cells (enzymatic activity, blue color after X-gal) (CHO cells [2]): no blue staining reactivity

Molecule: R R H H C R S K A K R S R (RRHHCRSKAKRSR) [hPER1-PTD13]
- membrane penetrating ability in words (relative to wild-type hPER1-MPP, TAT-PTD or negative control) (CHO cells [1]): little overall effect on the positive membrane penetrating potential

Molecule: GMDYKDDDDKGYGRKKKRRQRRR [Flag-TAT, reference compound]
- intracellular distribution / staining of internalized peptide (CHO cells [1]): diffusely distributed throughout the cytoplasm, but concentrated within subnuclear domains
- cells penetrated by peptide (CHO cells [1]): 100%

Molecule: GMDYKDDDDKGSRRHHCRSKAKRSHH [Flag-hPER1]
- intracellular distribution / staining of internalized peptide (CHO cells [1]): diffusely distributed throughout the cytoplasm, but concentrated within subnuclear domains
- cells penetrated by peptide (CHO cells [1]): 100%

Molecule: GKKKRKLSNRESAKRSR [beta Zip TF]
- membrane penetrating ability in words (relative to wild-type hPER1-MPP, TAT-PTD or negative control) (CHO cells [1]): not all NLSs are PTDs

Molecule: GDPKKKRKV [SV40, reference compound]
- membrane penetrating ability in words (relative to wild-type hPER1-MPP, TAT-PTD or negative control) (CHO cells [1]): not all NLSs are PTDs

Molecule: NCCc1c[nH]c2ccc(O)cc12 [serotonin]
- 5HT2A receptor signaling, calcium response (5HT2A receptor): receptor signaling is activated

Molecule: SRRHHCRSKAKRSRHH [hPER1-MPP, N-terminally biotinylated peptide of hPER1 amino acids 830-845]
- membrane penetrating ability in words (relative to wild-type hPER1-MPP, TAT-PTD or negative control) (CHO cells [1]): efficiencies similar to the TAT-PTD peptide
- time of internalization (CHO cells [1]): ≤ 5 min
- intracellular distribution / staining of internalized peptide (CHO cells [1]): diffusely distributed throughout the cytoplasm, but concentrated within subnuclear domains
- cells penetrated by peptide (CHO cells [1]): 100%

Molecule: GKHRHERGHHRDRRER [Cyclin L ania-6a]
- membrane penetrating ability in words (relative to wild-type hPER1-MPP, TAT-PTD or negative control) (CHO cells [1]): not all NLSs are PTDs
